Patent USRE29359E, “Bronchodilator expectorant composition containing theophylline and a guaiacol” (priority 1976, dated 1977)
≈ marks a conversion by molar mass, not a printed value. Where two headings read alike, the source gives them in different places.

Columns and labels:
[1] = cited from earlier work
[2] = Guaiacol as solubilizing agent for theophylline in water (Example 2); type: physicochemical
Method: In order to test the effectiveness of guaiacol as a solubilizing agent for theophylline in water, an experiment corresponding to the last entry in the table accompanying Example 1 is conducted. Theophylline, 4.0 g., and guaiacol, 4.39 g. […] A haze forms as the result of liquefaction of the guaiacol without complete solution thereof.
This amount will solubilize up to and including 4.25 g. of theophylline per 100 ml. of water in the composition. For lower theophylline concentrations, proportionately less guaiacol may be used, 0.47 g. thereof per 100 ml. being sufficient to solubilize 0.85 g. of theophylline per 100 ml.

[3] = Sucrose as supplementary solubilizing agent, crystallization after 3 days (Example 5)
Method: Solutions containing varying quantities of theophylline, glyceryl guaiacolate, and sucrose according to the figures arranged in the following table are prepared. The ingredients are warmed to about 60° C. to effect solution and the solutions are then kept at room temperature to observe whether crystallization occurs. Sucrose is taken as representative of the total of all other water soluble pharmaceutically acceptable ingredients that may be used in formulating the present compositions for the purposes of this experiment. It is apparent, of course, that the actual weight of flavors, colors, and other ingredients that will ordinarily be used for the purpose of creating pharmaceutical elegance will be relatively minor and that sucrose or equivalent material such as corn syrup or sorbitol is the only ingredient of this type which will ordinarily be used in substantial quantity.
(§1) (1) per 100 ml. of solution.
(§2) (2) per 100 ml. of water in solution.
*Appearance of duplicate samples after being stored separately at
26° C. and at 0° C. for 3 days.

[4] = Solubility of theophylline in water with glyceryl guaiacolate, crystallization after 3 days (Example 1); type: physicochemical; settings: for Result (appearance after storage): 3 days
Method: Varying quantities of theophylline and glyceryl guaiacolate are mixed and warmed with sufficient water to provide 100 ml. of solution. The solutions are cooled, adjusted to 100 ml. volume, and kept for 3 days to allow crystallization to take place. The specific gravities of the fresh solutions are measured, and the amount of water contained in 100 ml. of solution calculated. Two identical tubes of each composition are prepared. One is kept at room temperature (25° C.) and the other at 0° C.
A larger quantity of theophylline, 1.0 g./100 ml., will, however, dissolve when 0.75 g. of glyceryl guaiacolate per 100 ml. is also present in solution. Up to 4.0 g. of theophylline per 100 ml. of solution is soluble at room temperature when 7.0 g. of glyceryl guaiacolate per 100 ml. of solution is employed.
as §1, §2

[5] = cited from earlier work; remark: listed apart in the source
[6] = accepted by the art; cited from earlier work
[7] = Solubility in water or ethanol (statements in the description)
[8] = cited from earlier work; remark: listed apart in the source

COc1ccccc1O [guaiacol]
concentration of saturated solution in water ([1]; room temperature, absence of other solutes): 1.7 g./100 ml.
water solubility [1]: ≥ 1.7 g./100 ml.
specific gravity of solution ([2]; guaiacol 3.8 g, theophylline 4.0 g): ~1.016
crystallization on storage ([2]; guaiacol 3.8 g, 3 days, room temperature or 0 °C): no crystals separate
useful upper guaiacol solubility ratio ([2]; room temperature or 0 °C, 4320 min): about 4.05 g. per 100 ml. of water
appearance of solution ([2]; theophylline 4.0 g, guaiacol 3.8 g): clear solution
appearance of solution ([2]; theophylline 4.0 g, guaiacol 4.39 g): A haze forms
guaiacol dissolved in 100 ml. of water ([2]; with 4.37 g. theophylline): 4.05 g

COc1ccccc1OCC(O)CO (stereo not drawn) [glyceryl guaiacolate]
concentration of saturated solution in water ([1]; 25 °C): 5 g./100 ml.
water solubility [1]: ≥ 1.7 g./100 ml.
glyceryl guaiacolate per 100 ml. of water in composition [3]: 8.7 g. per 100 ml. of water
glyceryl guaiacolate upper concentration limit with sucrose ([3]; water, 72 h): ≥ 8.7 g. per 100 ml. of water

Cn1c(=O)c2[nH]cnc2n(C)c1=O [theophylline]
crystallization at ice temperature ([4]; 4.0 g theophylline, 7.0 g glyceryl guaiacolate per 100 ml. solution): Crystallization at ice temperature does, however, occur
crystallization at ice temperature ([4]; 4.37 g theophylline, 7.64 g glyceryl guaiacolate per 100 ml. water): Slight crystallization
theophylline soluble per 100 ml. of solution ([4]; glyceryl guaiacolate 7.0 g. per 100 ml. of solution, room temperature, 4320 min): Up to 4.0 g. per 100 ml. of solution
Result (appearance after storage) ([4]; theophylline 0.83 g, glyceryl guaiacolate 0 per 100 ml solution, 25 °C): Clear Solution
Result (appearance after storage) ([4]; theophylline 0.85 g, glyceryl guaiacolate 0 per 100 ml solution, 0 °C): Crystals formed.
Result (appearance after storage) ([4]; theophylline 1.00 g, glyceryl guaiacolate 0.75 g per 100 ml solution, 25 °C): Solution clear.
Result (appearance after storage) ([4]; theophylline 3.50 g, glyceryl guaiacolate 4.00 g per 100 ml solution, 0 °C): Crystals formed.
Result (appearance after storage) ([4]; theophylline 3.50 g, glyceryl guaiacolate 5.00 g per 100 ml solution, 25 °C): Clear solution.
Result (appearance after storage) ([4]; theophylline 4.00 g, glyceryl guaiacolate 7.00 g per 100 ml solution, 0 °C): Crystals formed.
Result (appearance after storage) ([4]; theophylline 4.00 g, glyceryl guaiacolate 7.00 g per 100 ml solution, 25 °C): Clear solution.
solubility ([4]; water, no glyceryl guaiacolate, read-out: normal solubility of theophylline (exceeded by)): < 8.5 mg/mL
solubility in ethanol ([1]; published figure): 1.25 g./100 ml.
theophylline per 100 ml. of water in composition [3]: 4.4 g. per 100 ml. of water
solubility at 72 h ([3]; water): ≥ 44 mg/mL
theophylline solubilized by guaiacol ([2]; guaiacol 0.47 g. per 100 ml.): 0.85 g. per 100 ml.
theophylline solubilized per 100 ml. of water ([2]; guaiacol about 4.05 g. per 100 ml. water, 4320 min): ≤ 4.25 g. per 100 ml. of water
pain on intramuscular injection ([5]; intramuscular): painful
absorption pattern ([5]; oral): irregular absorption pattern
gastrointestinal side effects ([5]; oral): frequently results in abdominal discomfort, nausea, and vomiting
therapeutic blood concentration [6]: 5 µg/mL
concentration in aqueous solution with guaiacol or water soluble forms thereof ([7]; solubilized by guaiacol and water soluble forms): ≤ 4.0 g./100 ml.
effect of water soluble ingredients on theophylline solubility ([7]; sucrose, sorbitol, glycerol, ethanol, solubilized by guaiacol and its derivatives): do not tend to diminish the solubility of the theophylline significantly
solubility ([7]; water): 80 mg/mL (≈ 444 mM)

COc1cc(S(=O)(=O)[O-])ccc1O.O.[K+] [potassium guaiacol sulfonate]
water solubility [1]: ≥ 1.7 g./100 ml.
crystallization on storage (potassium guaiacol sulfonate 4.28 g, theophylline 1.5 g per 100 ml., ice temperature): Slight crystallization occurs
appearance of solution (potassium guaiacol sulfonate 4.28 g, theophylline 1.5 g per 100 ml., room temperature): clear solution
crystallization on storage (potassium guaiacol sulfonate 4.28 g, theophylline 2 g per 100 ml., 0 °C): Crystallization from this solution occurs
separation of solid on storage (potassium guaiacol sulfonate 4.28 g, theophylline 2 g per 100 ml., room temperature): only very slight separation of solid material occurs
crystallization on storage (potassium guaiacol sulfonate 8.56 g, theophylline 4.0 g in 100 ml., 0 °C): Crystallization from this solution occurs
crystallization on storage (potassium guaiacol sulfonate 8.56 g, theophylline 4.0 g in 100 ml., room temperature): Crystallization from this solution occurs

Cn1c(=O)c2[nH]cnc2n(C)c1=O [aminophylline]
precipitation under acidic conditions ([8]; acidic conditions such as occur in the stomach): precipitation often occurs
solubility in alkaline solution ([8]; in excess of pH 8.0): relatively high solubilities in alkaline solution

COc1ccccc1OC1(O)C(=O)NC(=O)NC1=O [hemiacetal condensation product of guaiacol and alloxan]
water solubility [1]: ≥ 1.7 g./100 ml.
